Data set [1] in a line: Plasma pharmacokinetics of phenolic metabolites after oral capsule of (poly)phenol-rich Mediterranean extract mixture. The conditions noted are these: for AUC0-t plasma / MRT0-t plasma / T1/2 plasma / Tmax plasma: oral capsule, 0-24 h, n = 6 per time point.
Experimental: Adult male Sprague–Dawley rats weighing 250–300 g were purchased from the Animal Experimentation Service of the University of Murcia (Murcia, Spain). […] Animals were maintained in a temperature-controlled environment with a 12 h light-dark cycle. […] Based on the experimental design shown in Figure 1, one capsule was administered by gavage to each fasting animal. A total of 40 animals were used in the study. Thirty animals received a capsule containing a mixture of different Mediterranean food extracts, while ten animals received a capsule with microcrystalline cellulose and served as the control group. At each time point (1, 3, 6, 8, and 24 h postadministration), six animals from the extract group were sacrificed, three with transcardial perfusion using saline (PB) and three without perfusion (NPB), to assess the distribution of extract-derived metabolites in plasma and brain. To minimize animal use in accordance with the 3Rs principle, two control animals were sacrificed at each time point (one PB and one NPB). […] All animals were fasted overnight prior to gavage and euthanized with carbon dioxide.
Blood samples collected by cardiac puncture in sodium heparin tubes at each time point after sacrifice were immediately centrifuged at 14,000 × g for 15 min at 4 °C, and the plasma was stored at −80 °C until their analysis. Plasma samples were extracted with ACN:formic acid (98:2, v/v), centrifuged and evaporated in a speed vacuum concentrator (Savant SPD14 0DDA). The evaporated samples were resuspended in 100 μL MeOH and filtered through 0.22 μm regenerated cellulose filters (Minisart Sartorius, Madrid, Spain).
We performed a targeted metabolomic analysis using an ultrahigh-performance liquid chromatographic system (UPLC) coupled to a quadrupole-time-of-flight (QTOF) mass spectrometer. The phenolic compounds were separated using an Agilent Poroshell 120 column (100 mm × 3 mm, 2.7 μm) and a 5 μL injection volume. The mobile phases used were 0.1% formic acid in water (A) and 0.1% formic acid in ACN (B), and the gradient was: 0–3 min, 5–15% B; 3–11 min, 15–30% B; 11–14 min, 30–50% B, 14–16 min, 50–90% B. Finally, the B content was decreased to the initial conditions (5%) in 1 min, and the column re-equilibrated for 4 min. The flow rate was set constant at 0.4 mL/min. The spectra were acquired in the m/z range from 100 to 1100, in negative polarity mode and an acquisition rate of 1.5 spectra per second.
The nature of data set [2]: Targeted metabolomics (UPLC-ESI-QTOF) identification of metabolites in plasma, PB and NPB. The note with it: P plasma, PB perfused brain, NPB nonperfused brain, 1-24 h after oral capsule.
Experimental: Adult male Sprague–Dawley rats weighing 250–300 g were purchased from the Animal Experimentation Service of the University of Murcia (Murcia, Spain). […] Based on the experimental design shown in Figure 1, one capsule was administered by gavage to each fasting animal. A total of 40 animals were used in the study. Thirty animals received a capsule containing a mixture of different Mediterranean food extracts, while ten animals received a capsule with microcrystalline cellulose and served as the control group. […] To minimize animal use in accordance with the 3Rs principle, two control animals were sacrificed at each time point (one PB and one NPB). These controls served to identify potential endogenous compounds or background signals not related to the extract administration. All animals were fasted overnight prior to gavage and euthanized with carbon dioxide.
Plasma samples were extracted with ACN:formic acid (98:2, v/v), centrifuged and evaporated in a speed vacuum concentrator (Savant SPD14 0DDA). The evaporated samples were resuspended in 100 μL MeOH and filtered through 0.22 μm regenerated cellulose filters (Minisart Sartorius, Madrid, Spain). Next, half of the animals at each time point were perfused with ice-cold phosphate-buffered saline, and the blood-free brain was dissected out immediately and stored at – 80 °C until analysis, as previously reported.[37],[48]
Approximately 400 mg of brain tissue (perfused or nonperfused) was weighed and extensively washed with cold PBS to avoid external blood contamination. After weighting, the samples were placed in 2 mL screw cap tubes. […] The evaporated samples were resuspended in 100 μL MeOH and filtered through 0.22 μm regenerated cellulose filters.
We performed a targeted metabolomic analysis using an ultrahigh-performance liquid chromatographic system (UPLC) coupled to a quadrupole-time-of-flight (QTOF) mass spectrometer. The phenolic compounds were separated using an Agilent Poroshell 120 column (100 mm × 3 mm, 2.7 μm) and a 5 μL injection volume. […] The flow rate was set constant at 0.4 mL/min. The spectra were acquired in the m/z range from 100 to 1100, in negative polarity mode and an acquisition rate of 1.5 spectra per second. Quantitative data were processed using the Mass HunterQualitative Analysis software (version B.08.00, Agilent). A target screening strategy was applied for the qualitative analysis of possible metabolites derived from the consumption of the Mediterranean blend. […] These compounds encompass derived metabolites conjugated (glucuronides, sulfates, and sulfoglucuronides, among others). The exact mass of the proposed compound was extracted using an extraction window of 0.01 m/z. Metabolite quantification was performed by integrating the peak areas of their extracted ion chromatograms (EICs). Compounds with available standards were quantified using calibration curves derived from the respective standards, while other metabolites were semiquantified based on their peak area values.
Data set [3] can be described thus: Perfused brain (PB) kinetics of phenolic metabolites after oral capsule. The data set is classed as in vivo, Sprague–Dawley rats. Details: AUC0-t PB: concentration or dose not given beside the values. The conditions noted are these: perfused brain; for half-life: read-out: T1/2 PB (converted). From the text:
(§1) Statistical analyses were applied depending on the experimental context.

Data set [4] in a line: Nonperfused brain (NPB) kinetics of phenolic metabolites after oral capsule. In kind it is in vivo, Sprague–Dawley rats. Details: AUC0-t NPB: concentration or dose not given beside the values. The note with it: nonperfused brain, oral capsule, 0-24 h, n = 3 per time point; for Tmax / MRT last / half-life: male, Sprague-Dawley, rat, 22 mg extract blend per capsule, one capsule per animal; for MRT last: read-out: MRT0-t NPB; for half-life: read-out: T1/2 NPB (converted).
Source text: as §1

Data set [5] deals with human brain microvascular endothelial cells (HBMECs). As to the kind of experiment: In vitro blood–brain barrier transport (Transwell). The note with it: 2 h; for transport efficiency in MIXperc compared with MIXeq / transport efficiency in both mixtures and as individual molecules: HBMEC; for transport efficiency in MIXperc compared with MIXeq: mixtures at 2.5 μM final; for transport percentage, individual compounds: HBMEC monolayer, lower compartment / total concentration; for transport percentage, individual compounds / transport efficiency in both mixtures and as individual molecules: 2.5 μM. In kind it is in vitro ADME. The method, then: The BBB transport model was established using human brain microvascular endothelial cells (HBMECs), following a methodology previously described.[49] Cells were maintained at 37 °C in a humidified environment with 5% CO2. HBMECs were seeded on 12-well Transwell inserts (12 mm, 0.4 μm pore polyester membrane; Corning, Madrid, Spain) and cultured for 6 days to form confluent monolayers suitable for transport studies. Transport assays were carried out in Hanks’ Balanced Salt Solution (HBSS) supplemented with 0.1% fetal bovine serum (FBS, v/v). The cells were exposed on the apical side to individual phenolic metabolites detected in the brain from the animal study, a representative mixture containing equal concentrations of these metabolites, or a physiological mixture reproducing their relative percentages as observed in the brain. All treatments were applied at a final concentration of 2.5 μM for 2 h (Supporting Information, Table S3). The integrity of the cell monolayers was confirmed by measuring transendothelial electrical resistance (TEER) at the start of the experiment (0 h) and after the last time point (2 h) using an EVOM2 Epithelial Volt Ohm Meter (World Precision Instruments, Inc., USA).
Samples from the apical and basolateral compartments were stored at −80 °C for further analysis. Transport of the compounds was evaluated using UPLC-qTOF as described elsewhere,[38] and transendothelial permeability expressed as a percentage of the ratio between the concentration in the basolateral compartment relative to the total concentration in both compartments.
Finally, one-way ANOVA with Tukey’s multiple comparisons test was exclusively applied to in vitro BBB transport experiments. The three tested conditions for each compound (individual compound, a mixture containing equal concentrations of these compounds, or a physiological mixture reproducing their relative percentages as observed in the brain were evaluated. Plots were performed using GraphPad 9.0 (GraphPad Software, Boston, Massachusetts, USA). Statistical significance was set at P < 0.05.
Figure 3 Transport efficiency of phenolic metabolites across the BBB. Human brain microvascular endothelial cells (HBMEC) were seeded onto semipermeable membranes. […] Detailed composition of both mixtures is given in the Supporting Information, Table S3. Media from the upper and lower compartments were collected, and endothelial transport was evaluated by UPLC-qTOF-MS. The transport percentage (%) was determined by the concentration ratio in the lower compartment to the total concentration (upper and lower compartments). All values are presented as mean ± SD from three independent experiments.

[6] abbreviates: male, Sprague-Dawley, rat, po, 22 mg extract blend per capsule, one capsule per animal.
[7] abbreviates: male, Sprague-Dawley, rat, 22 mg extract blend per capsule, one capsule per animal, oral capsule, 0-24 h, n = 3 per time point.
Setting [8] is: oral capsule, 0-24 h, n = 3 per time point.
Setting [9] is: read-out: Cmax plasma, oral capsule, 0-24 h, n = 6 per time point.

Entries after “also recorded” stand apart in the source; their conditions may differ. Like-named read-outs stand apart in the source and are kept apart here.

Consider `O=C(O)CCCCc1cccc(O)c1` [5-(3-hydroxyphenyl)-valeric acid], for which the “concentration in plasma (approximate)” value in data set [1] is recorded as “approximately 5 nM”. Moreover, in data set [1] (setting [6]), the AUC(0-t) was determined as 0.055 ± 0.011 µM·h, the Cmax stood at 4.8 ± 1.9 nM, the MRT last came to 43 ± 45 h and the Tmax is 7.4 ± 9.5 h. Further, in data set [1] (setting [6]), the half-life is 29 ± 32 h. For the same compound, in data set [2], the occurrence entry was “PB, NPB, P”. In data set [2] (listed as 5-(3-hydroxyphenyl)valeric acid), the occurrence entry was “consistently detected in plasma and brain at all time points”. In data set [3] (setting [7]), the Tmax was determined as 2 ± 1.2 h and the half-life was 39 ± 19 h. Also, in data set [3] (setting [8]), the “AUC0-t PB” value came out at 30 ± 6.5 pmol·h/g and the “Cmax PB” value was 2.4 ± 0.8 pmol/g tissue. In data set [4], the Tmax came to 2.3 ± 1.2 h, the MRT last came out at 102 ± 62 h, the half-life is 70 ± 46 h and the “AUC0-t NPB” value was 33 ± 4.8 pmol·h/g. In addition, the “Cmax NPB” value in data set [4] stood at 3.4 ± 0.7 pmol/g tissue. Besides, in data set [5], the “transport efficiency in MIXperc compared with MIXeq” value is “lower transport percentages”.
As for `O=C(O)CCc1ccc(O)c(O)c1` [dihydrocaffeic acid], in data set [1] (setting [6]), the AUC(0-t) amounted to 0.127 ± 0.031 µM·h, the Cmax was 16 ± 8.6 nM, the MRT last is 86 ± 138 h and the Tmax turned out to be 2.6 ± 0.9 h. The half-life in data set [1] (setting [6]) is 61 ± 94 h. Also, the occurrence entry in data set [2] was “PB, NPB, P”. Besides, in data set [2] (listed as 3-(3,4-dihydroxyphenyl)propionic acid), the occurrence result is “consistently detected in plasma and brain at all time points”. For the same compound, the Tmax in data set [3] (setting [7]) was found to be 4.5 ± 5 h. Also, in data set [3] (setting [8]), the “AUC0-t PB” value came out at 11 ± 2.8 pmol·h/g and the “Cmax PB” value is 0.7 ± 0.3 pmol/g tissue. In addition, in data set [4], the Tmax stood at 24 h, the “AUC0-t NPB” value is 18 ± 1 pmol·h/g and the “Cmax NPB” value worked out at 0.9 ± 0.1 pmol/g tissue. For the same compound, in data set [5], the “transport percentage, individual compounds” value (“transport percentage” for short) is given as less than 5%.
`O=C(O)C=Cc1ccc(OS(=O)(=O)O)cc1` [p-coumaric acid 4-O-sulfate]: in data set [1], the AUC0-t plasma came out at 0.293 ± 0.154 µM·h, the MRT0-t plasma amounted to 45 ± 37 h, the T1/2 plasma is given as 33 ± 28 h and the Tmax plasma worked out at 3.6 ± 2.6 h. Besides, in data set [1] (setting [9]), the Cmax was 44 ± 47 nM. Moreover, the occurrence entry in data set [2] is “PB, NPB, P”. Further, in data set [3], the “PB concentration relative to ferulic acid 4-O-sulfate” value amounted to 14 fold. In addition, in data set [3] (setting [8]), the “Cmax PB” value was determined as 2.8 ± 2.4 pmol/g tissue, the “MRT0-t PB” value came out at 30 ± 20 h, the “T1/2 PB” value is 23.85 h and the “Tmax PB” value is 19 ± 12 h. In data set [4], the “AUC0-t NPB” value was determined as 1.6 ± 0.6 pmol·h/g, the “Cmax NPB” value was determined as 0.2 ± 0.1 pmol/g tissue and the “Tmax NPB” value amounted to 3.0 ± 0.0 h. In data set [5], the “transport percentage” value is reported as “exceeding 20%”; the “transport efficiency in both mixtures and as individual molecules” value was “relatively consistent transport efficiencies”.
Turning to `O=C(O)C=Cc1ccc(O)c(OS(=O)(=O)O)c1` [caffeic acid 3-O-sulfate], in data set [1], the AUC0-t plasma turned out to be 0.282 ± 0.332 µM·h, the MRT0-t plasma came to 13 ± 8.8 h, the T1/2 plasma is listed as 8.3 ± 4.9 h and the Tmax plasma amounted to 8.6 ± 8.9 h. Further, in data set [1] (setting [9]), the Cmax was determined as 22 ± 21 nM. In addition, the occurrence result in data set [2] is recorded as “PB, NPB, P”. For the same compound, in data set [3] (setting [8]), the “AUC0-t PB” value is 4.7 ± 1.8 pmol·h/g, the “Cmax PB” value came out at 1.0 ± 0.7 pmol/g tissue, the “MRT0-t PB” value turned out to be 8.7 ± 7.3 h and the “T1/2 PB” value is 5.2 ± 5.7 h. Besides, the “Tmax PB” value in data set [3] (setting [8]) is 3.0 ± 0.1 h. Moreover, in data set [4], the “AUC0-t NPB” value was 3.32 pmol·h/g, the “Cmax NPB” value is 0.24 pmol/g tissue and the “Tmax NPB” value is recorded as 3.00 h. Also, in data set [5], the “transport percentage” value was “exceeding 20%”; the “transport efficiency in both mixtures and as individual molecules” value was “relatively consistent transport efficiencies”.
As for `O=C(O)[C@H]1O[C@@H](Oc2cc(O)cc(CCc3ccc(O)cc3)c2)[C@H](O)[C@@H](O)[C@@H]1O` [dihydroresveratrol 3-O-glucuronide], in data set [1], the AUC0-t plasma worked out at 0.993 ± 0.558 µM·h, the MRT0-t plasma is 14 ± 5.8 h, the T1/2 plasma came out at 8.1 ± 3.2 h and the Tmax plasma came to 6.2 ± 2.1 h. Also, the Cmax in data set [1] (setting [9]) stood at 93 ± 45 nM. Besides, in data set [2], the occurrence entry was “PB, NPB, P”. Besides, in data set [3] (setting [8]), the “AUC0-t PB” value was determined as 1.3 ± 0.7 pmol·h/g, the “Cmax PB” value is 0.4 ± 0.1 pmol/g tissue, the “MRT0-t PB” value stood at 23 ± 26 h and the “T1/2 PB” value is listed as 15 ± 18 h. Besides, the “Tmax PB” value in data set [3] (setting [8]) stood at 3.3 ± 2.1 h. In addition, in data set [4], the “AUC0-t NPB” value worked out at 5.3 ± 2.8 pmol·h/g, the “Cmax NPB” value is 0.5 ± 0.1 pmol/g tissue, the “MRT0-t NPB” value came to 44 ± 1 h and the “T1/2 NPB” value came out at 27 ± 1 h. For the same compound, in data set [4], the “Tmax NPB” value came to 6.7 ± 1.2 h. Also, the “transport efficiency in MIXperc compared with MIXeq” value in data set [5] is “significantly higher transport efficiencies”.
Turning to `O=S(=O)(O)Oc1cc(O)cc(C=Cc2ccc(O)cc2)c1` [resveratrol 3-O-sulfate], in data set [1] (setting [6]), the AUC(0-t) stood at 0.0084 ± 0.01 µM·h, the Cmax stood at 2.2 ± 2.6 nM, the MRT last was 8.5 ± 5.5 h and the Tmax came to 5.2 ± 2.2 h. Also, the half-life in data set [1] (setting [6]) was 3.9 ± 4.3 h. For the same compound, in data set [2], the occurrence entry was “detected in plasma, PB, and NPB; also recorded: PB, NPB, P”. In addition, the Tmax in data set [3] (setting [7]) was determined as 5 ± 1.7 h. In data set [3] (setting [8]), the “AUC0-t PB” value is 0.1 ± 0.1 pmol·h/g and the “Cmax PB” value was determined as 0.1 ± 0.01 pmol/g tissue. In addition, in data set [4], the Tmax came to 15 ± 13 h, the “AUC0-t NPB” value worked out at 2.2 ± 0.1 pmol·h/g and the “Cmax NPB” value was found to be 0.2 ± 0.04 pmol/g tissue. In data set [5], the “transport percentage” value is on record as less than 5% and the “transport efficiency in MIXperc compared with MIXeq” value is reported as “lower transport percentages”.
In the case of `O=C(O)CCc1cccc(O)c1` [3-(3-hydroxyphenyl) propionic acid], in data set [1] (setting [6]), the AUC(0-t) amounted to 0.481 ± 0.353 µM·h, the Cmax was found to be 39 ± 20 nM, the MRT last amounted to 9.77 h and the Tmax is 13 ± 11 h. Besides, the half-life in data set [1] (setting [6]) was 6.9 h. Also, the occurrence result in data set [2] is reported as “PB, NPB, P”. Further, in data set [2] (listed as 3-(3-hydroxyphenyl)propionic acid), the occurrence result was “consistently detected in plasma and brain at all time points”. In addition, in data set [3] (setting [7]), the time to peak (Tmax) came to 3.3 ± 2.5 h and the half-life was 11 ± 6.9 h. Moreover, the MRT last in data set [3] (male, Sprague-Dawley, rat, 22 mg extract blend per capsule, one capsule per animal, oral capsule, 0-24 h, n = 3 per time point, read-out: MRT0-t PB) is 11 ± 6.9 h. Besides, in data set [3] (setting [8]), the “AUC0-t PB” value amounted to 11 ± 6.8 pmol·h/g and the “Cmax PB” value is recorded as 1.0 ± 0.5 pmol/g tissue. In data set [4], the Tmax was determined as 7.5 ± 3.1 h, the MRT last was 11 ± 4.1 h, the half-life was 20 ± 15 h and the “AUC0-t NPB” value was 13 ± 11 pmol·h/g. Besides, in data set [4], the “Cmax NPB” value came to 4.0 ± 3.6 pmol/g tissue. In data set [5], the “transport percentage” value is listed as “exceeding 20%”; the “transport efficiency in both mixtures and as individual molecules” value was “relatively consistent transport efficiencies”.

The values above are taken from article PMC12063173, “Metabolic Profiling of a Mediterranean-Inspired (Poly)phenol-Rich Mixture in the Brain: Perfusion Effect and In Vitro Blood–Brain Barrier Transport Validation” (Journal of Agricultural and Food Chemistry, 2025).
